The subject of one assay is CCRF-CEM cell line. Nature of the assay: CCRF-CEM cell growth inhibition. As to conditions: Homo sapiens, read-out: IC50, concentration inhibiting cell growth of a CCRF-CEM cell line by 50% as compared to control. It is filed as cell-based. As to the method: For N-(N-{5-[2-(2-amino-4-hydroxy-5,6,7,8-tetrahydropyrido[2,3-d]pyrimidin-6-yl)-ethyl]thien-2-ylcarbonyl}-L-γ-glutamyl)-D-aspartic acid, the IC50 is 0.100 μg/mL. For N-(N-{5-[2-(2-amino-4-hydroxy-5,6,7,8-tetrahydropyrido[2,3-d]pyrimidin-6-yl)ethyl]thien-2-ylcarbonyl}-L-γ-glutamyl)-D-glutamic acid 1-tert.-butyl-2,2-diethyl ester, the IC50 is 1.0 μg/mL. For N-{5-[2-(2-amino-4-hydroxy-5,6,7,8-tetrahydropyrido[2,3-d]pyrimidin-6-yl)- ethyl]thien-2-ylcarbonyl}-L-homocysteic acid α-methyl ester, the IC50 is 0.200 μg/mL. […] For 2-{5-[2-(2-amino-4-hydroxy-5,6,7,8-tetrahydropyrido[2,3-d]pyrimidin-6-yl)ethyl]thien-2-ylcarbonylamino}-3-(2H-tetrazol-5-yl)propanoic acid diammonium salt the IC50 is >100 μg/mL.

Assay [1] concerns the target T1, human monofunctional GARFT (Homo sapiens, UniProt P22102).
T1 construct: human monofunctional GARFT
T1 sequence (P22102 810-1010 limits assumed): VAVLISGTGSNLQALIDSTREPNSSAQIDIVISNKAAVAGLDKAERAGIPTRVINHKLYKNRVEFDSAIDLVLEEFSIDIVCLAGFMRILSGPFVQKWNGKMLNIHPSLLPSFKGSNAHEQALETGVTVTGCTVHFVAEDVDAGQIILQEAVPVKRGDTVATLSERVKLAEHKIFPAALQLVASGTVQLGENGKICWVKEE
Nature of the assay: Ki against human monofunctional GARFT. Type of assay: biochemical. As to conditions: tight-binding analysis per Henderson; read-out: Ki inhibition constant against human monofunctional GARFT.

Assay [2] has as its system 6C3HED lymphosarcoma tumor. Nature of the assay: 6C3HED lymphosarcoma tumor growth inhibition in C3H female mice. It is filed as in vivo. As to conditions: daily IV bolus injection for 8 days. As to the method:
N-(N-{5-[2-(2-amino-4-hydroxy-5,6,7,8-tetrahydropyrido[2,3 -d]pyrimidin-6-yl)ethyl]thien-2-ylcarbonyl}-L-γ-glutamyl)-D-asparticacid was evaluated against 6C3HED lymphosarcoma tumor in C3H female mice with the compound given daily, IV bolus injection, for 8 days. Compounds were administered in units of mg/kg of body weight. At the end of treatment, tumor weight was estimated using an electronic caliper interfaced to a microcomputer, and average tumor weight was calculated for each dosing level and a control group. Percentage inhibition of tumor growth was calculated as % inhibition of tumor growth according to the expression:
[1-(average tumor weight experimental group/average tumor weight control
Percentage inhibition was not calculated at a particular dosing level if mortality exceeded 20%. Cumulative dose was calculated by multiplying the daily dose by the number of days doses were administered.

SMILES strings stand for the structures. Converted amounts (≈) assume the structure as drawn. Where a name gives a salt, the structure may show the parent alone.

The source of these data is patent publication US5786358A, “Pyridopyrimidines as nonclassical antifolates” (The Trustees of Princeton University, priority 1996, dated 1998).

As usually defined, the Ki is a dissociation constant, usually derived from enzyme kinetics or from competition with a known ligand.

Consider `Nc1nc(O)c2c(n1)NCC(CCc1ccc(C(=O)N[C@@H](CCS(=O)(=O)O)C(=O)O)s1)C2` (stereo partly drawn) [Example 9, N-{5-[2-(2-Amino-4-hydroxy-5,6,7,8-tetrahydropyrido[2.3-d]pyrimidin-6-yl)-ethyl]thien-2-ylcarbonyl}-L-homocysteic Acid], for which the IC50 in the assay with CCRF-CEM cell line is 0.82 µg/mL (≈ 1.69 µM). Consider `COC(=O)[C@H](CCS(=O)(=O)O)NC(=O)c1ccc(CCC2CNc3nc(N)nc(O)c3C2)s1` (stereo partly shown) [Example 8], for which the IC50 in the assay on CCRF-CEM cell line worked out at 0.2 µg/mL (≈ 0.4 µM). In assay [1], the Ki came out at 3.5 nM.

As to `Nc1nc(O)c2c(n1)NCC(CCc1ccc(C(=O)NC(Cc3nn[nH]n3)C(=O)O)s1)C2` (stereo not shown) [Example 13], the IC50 in the assay on CCRF-CEM cell line is greater than 100 µg/mL. In addition, the Ki in assay [1] came to 156 nM. Take `Nc1nc(O)c2c(n1)NCC(CCc1ccc(C(=O)N[C@@H](CCC(=O)N[C@H](CC(=O)O)C(=O)O)C(=O)O)s1)C2` (stereo partly shown) [Example 2]: the IC50 in the assay with CCRF-CEM cell line worked out at 0.1 µg/mL (≈ 0.177 µM). Moreover, the “% inhibition of tumor growth” value in assay [2] (100 mg/kg) and in assay [2] (200 mg/kg) was 100% in each case. For the same compound, the Ki in assay [1] was found to be 0.244 nM. For `CCOC(=O)CC[C@@H](NC(=O)CC[C@H](NC(=O)c1ccc(CCC2CNc3nc(N)nc(O)c3C2)s1)C(=O)OC(C)(C)C)C(=O)OCC` (stereo partly drawn) [N-(N-{5-[2-(2-amino-4-hydroxy-5,6,7,8-tetrahydropyrido[2,3-d]pyrimidin-6-yl)ethyl]thien-2-ylcarbonyl}-L-γ-glutamyl)-D-glutamic acid 1-tert.-butyl-2,2-diethyl ester], in the assay with CCRF-CEM cell line, the IC50 stood at 1 µg/mL (≈ 1.45 µM). Further, the Ki in assay [1] was found to be 7.7 nM.

Regarding `Nc1nc(O)c2c(n1)NCC(CCc1ccc(C(=O)N[C@@H](CCC(=O)N[C@H](CC(=O)O)C(=O)O)C(=O)O)cc1)C2` (stereo partly drawn) [Example 1, N-(N-{4-[2-(2-Amino-4-hydroxy-5,6,7,8-tetrahydropyrido[2,3-d]pyrimidin-6-yl)ethyl]benzoyl}-L-γ-glutamyl)-D-aspartic Acid], in the assay on CCRF-CEM cell line, the IC50 was determined as 1.6 µg/mL (≈ 2.86 µM). For `Nc1nc(O)c2c(n1)NCC(CCc1ccc(C(=O)N[C@@H](Cc3nn[nH]n3)C(=O)O)cc1)C2` (stereo partly shown) [Example 12, 2-{4-[2-(2-Amino-4-hydroxy-5,6,7,8-tetrahydropyrido[2.3-d]pyrimidin-6-yl)ethyl]benzoylamino}-3-(2H-tetrazol-5-yl)propanoic Acid Diammonium Salt], in the assay on CCRF-CEM cell line, the IC50 came to 28.6 µg/mL.
